Here are results for 48 molecules from patent publication US20060281695A1, “Control of parasites in animals by N-[(phenyloxy)phenyl]-1,1,1-trifluoromethanesulfonamide and N-[(phenylsulfanyl)phenyl]-1,1,1-trifluoromethanesulfonamide derivatives” (priority 2005, published 2006).

One series deals with cat flea (Ctenocephalides felis). The series is described as follows: Ctenocephalides felis adulticide assay: single dose screen on treated glass surface (% mortality at 1.26 μg/cm^2, 24 hours). Particulars: Ctenocephalides felis, 24 h, read-out: Ctenocephalides felis Mortality (%) 24 h. Format: in vivo. As to the method:
The LC50 value is the concentration, expressed as μg/cm^2, that was required to kill 50% of the sample of cat fleas on contact with the tested compound. Certain tests are also reported as the percent of a sample of cat fleas that were killed at a concentration of 1.26 μg/cm^2 (“% mortality”), for the compounds tested in this way.
b) Ctenocephalides felis Adulticide Assay: C.felis single dose screen
Mortality of fleas is the primary endpoint in the assay. […] The concentration chosen (1.26 μg/cm^2) is higher than that known to kill 90% of cat fleas (LC90) using the reference compound, permethrin.
The test species employed was the cat flea (Ctenocephalides felis). The strain used was obtained from external suppliers as pupae and held in the laboratory under testing conditions until the adults had emerged. Fifteen (15) fleas were used in a minimum of four replicates against a single concentration level (approximately 60 fleas). The insects were selected to be in the adult life stage, aged between 3 and 7 days post emergence.
The compounds to be tested were supplied as solids and were prepared in acetone as described below prior to testing. Samples were stored in a refrigerator (5±1° C.) unless otherwise specified.
During the mortality testing, the temperature was maintained at 25±1° C. Humidity was maintained at 75±5%. The base (area=159 mm^2) of a 100 mL glass Erlenmeyer (conical) flask provided the treatment surface. Flasks were pre-treated with Coatasil™ glass treatment to maximise bio-availability of test compounds by preventing them from binding to glass the surface. The base of the 100 mL Erlenmeyer flask was treated with 0.5 mL of test sample in acetone and gently swirled. This volume was sufficient to cover the base of the flask. Flasks were left to dry for 24 hours before flea exposure.
Adult cat fleas were placed into a sorting chamber, which allowed fleas to jump into the Erlenmeyer flasks. Fifteen (15) adult cat fleas were collected in each flask. The top of the flasks were then covered in Parafilm™ and small holes were made to allow gas exchange. A 0.5 mL volume of acetone as a solvent control was applied to the base of an Erlenmeyer flask and the testing proceeded in the same manner described above. […] Pooled 24 hour mortality data were converted to percentages and are summarized by Table 4, below.
In Table 7, provided below, are listed the Haemonchus contortus LD99 values (measured in micrograms/mL), the Ctenocephalides felis rapid screening values (measured in % mortality), the Ctenocephalides felis LC50 values (measured in micrograms/cm^2) and the Rhipicephalus sanguineus rapid screening values (measured in % mortality) for selected compounds in accordance with the present invention.
The mortality is the share of the test organisms that died. For `O=S(=O)(Nc1ccc(Cl)cc1Oc1ccccc1-c1ccccc1)C(F)(F)F` [Compound 74, N-[2-(Biphenyl-2-yloxy)-4-chlorophenyl]-1,1,1-trifluoromethanesulfonamide], the mortality at 1.26 µg/cm2, 1.26 µg/cm2 came out at 81%.

As to `O=S(=O)(Nc1ccc(Cl)cc1Nc1ccc(Cl)cc1)C(F)(F)F` [Compound 91, N-[4-Chloro-2-(4-chlorophenylamino)-phenyl]-1,1,1-trifluoromethanesulphonamide], the mortality at 1.26 µg/cm2, 1.26 µg/cm2 amounted to 13%. As for `O=S(=O)(N(Cc1ccccc1)c1ccc(Cl)cc1Oc1ccc(Cl)cc1Cl)C(F)(F)F` [Compound 92, N-benzyl-N-[4-chloro-2-(2,4-dichlorophenoxy)phenyl]-1,1,1-trifluoromethanesulfonamide], the mortality at 1.26 µg/cm2, 1.26 µg/cm2 was 57%. Still for that read-out and setting: then `CCOCN(c1cccc(Oc2ccc(Cl)cc2Cl)c1)S(=O)(=O)C(F)(F)F` [Compound m7, N-Ethoxymethyl-N-[3-(2,4-dichlorophenoxy)phenyl]-1,1,1-trifluoromethanesulfonamide], with 5%. On the same count and under the same terms, with `O=S(=O)(Nc1ccc(Oc2ccc(Cl)cc2Cl)c(Cl)c1)C(F)(F)F` [Compound p7, N-[3-Chloro-4-(2,4-dichlorophenoxy)phenyl]-1,1,1-trifluoromethanesulfonamide] the figure was 22%.

The series is the same for the next values; noted with them: in vivo.
With `O=S(=O)(Nc1ccc(Cl)cc1[S+]([O-])c1ccc(Cl)cc1)C(F)(F)F` (stereo not drawn) [Compound 23, N-[4-chloro-2-(4-(chlorophenyl)sulfinyl)phenyl]-1,1,1-trifluoromethanesulfonamide], the “Ctenocephalides felis Mortality (%) 24 h” value is given as 3%.

For `CC(C)c1ccccc1Oc1cc(Cl)ccc1NS(=O)(=O)C(F)(F)F` [Compound 39], the “Ctenocephalides felis Mortality (%) 24 h” value is 75%. In the case of `O=S(=O)(Nc1ccc(Cl)cc1Oc1ccccc1)C(F)(F)F` [Compound 40], the “Ctenocephalides felis Mortality (%) 24 h” value stood at 39%. With `CC(C)(C)c1ccccc1Oc1cc(Cl)ccc1NS(=O)(=O)C(F)(F)F` [Compound 42], the “Ctenocephalides felis Mortality (%) 24 h” value worked out at 88%. On the same count and under the same terms, with `O=S(=O)(Nc1ccc(Cl)cc1Oc1ccc(Oc2ccccc2)cc1)C(F)(F)F` [Compound 47] the figure was 36%; with `COc1ccc(Oc2cc(Cl)ccc2NS(=O)(=O)C(F)(F)F)cc1` [Compound 49], 24%.

Take `N#Cc1cccc(Oc2cc(Cl)ccc2NS(=O)(=O)C(F)(F)F)c1` [Compound 50]: the “Ctenocephalides felis Mortality (%) 24 h” value was 14%.

Regarding `N#Cc1ccc(NS(=O)(=O)C(F)(F)F)c(Oc2ccc(Cl)cc2)c1` [Compound 51], the “Ctenocephalides felis Mortality (%) 24 h” value turned out to be 10%. As to `N#Cc1ccc(NS(=O)(=O)C(F)(F)F)c(Oc2ccc(Cl)cc2Cl)c1` [Compound 52], the “Ctenocephalides felis Mortality (%) 24 h” value is 23%.

Regarding `N#Cc1ccc(NS(=O)(=O)C(F)(F)F)c(Oc2ccccc2F)c1` [Compound 53], the “Ctenocephalides felis Mortality (%) 24 h” value amounted to 9%. Still for that read-out and setting: then `Cc1ccccc1Oc1cc(C#N)ccc1NS(=O)(=O)C(F)(F)F` [Compound 54], with 5%; and `N#Cc1ccc(Oc2cc(Cl)ccc2NS(=O)(=O)C(F)(F)F)cc1` [Compound 56], with 6%.

Turning to `N#Cc1ccc(NS(=O)(=O)C(F)(F)F)c(Oc2ccc(F)c(F)c2)c1` [Compound 57], the “Ctenocephalides felis Mortality (%) 24 h” value worked out at 2%. For `COc1cccc(Oc2cc(Cl)ccc2NS(=O)(=O)C(F)(F)F)c1` [Compound 58], the “Ctenocephalides felis Mortality (%) 24 h” value came to 87%. Turning to `N#Cc1ccc(NS(=O)(=O)C(F)(F)F)c(Oc2cccc(C(F)(F)F)c2)c1` [Compound 60], the “Ctenocephalides felis Mortality (%) 24 h” value came out at 5%.

As to `O=S(=O)(Nc1ccc(Cl)cc1Sc1ccccc1Cl)C(F)(F)F` [Compound 62], the “Ctenocephalides felis Mortality (%) 24 h” value is 25%. The same measure, in the same setting: then `O=S(=O)(Nc1cc(C(F)(F)F)ccc1Sc1ccccc1)C(F)(F)F` [Compound 63], with 10%; and `O=S(=O)(Nc1cc(C(F)(F)F)ccc1Sc1ccccc1Cl)C(F)(F)F` [Compound 64], with 14%. The same measure, in the same setting: with `O=S(=O)(Nc1cc(C(F)(F)F)ccc1Sc1ccc(F)cc1)C(F)(F)F` [Compound 65] the figure was 21%; with `O=S(=O)(Nc1cc(C(F)(F)F)ccc1Sc1ccccc1F)C(F)(F)F` [Compound 66], 20%; with `O=S(=O)(Nc1cc(C(F)(F)F)ccc1Sc1ccc(Br)cc1)C(F)(F)F` [Compound 67], 5%. As for `O=S(=O)(Nc1ccc(Cl)cc1Oc1cc(Cl)ccc1Cl)C(F)(F)F` [Compound 69], the “Ctenocephalides felis Mortality (%) 24 h” value was 58%. Same read-out and setting: with `CCN(c1ccc(Cl)cc1Oc1ccc(Cl)cc1Cl)S(=O)(=O)C(F)(F)F` [Compound 76] the figure was 3%; with `CN(c1ccc(Cl)cc1Oc1ccccc1F)S(=O)(=O)C(F)(F)F` [Compound 77], 20%. With `CCN(c1ccc(Cl)cc1Oc1ccccc1F)S(=O)(=O)C(F)(F)F` [Compound 78], the “Ctenocephalides felis Mortality (%) 24 h” value is reported as 80%. Still for that read-out and setting: then `COCN(c1ccc(Cl)cc1Oc1ccccc1F)S(=O)(=O)C(F)(F)F` [Compound 79], with 60%; and `CCOCN(c1ccc(Cl)cc1Oc1ccccc1F)S(=O)(=O)C(F)(F)F` [Compound 80], with 9%.

As for `O=S(=O)(N(Cc1ccccc1)c1ccc(Cl)cc1Oc1ccccc1F)C(F)(F)F` [Compound 81], the “Ctenocephalides felis Mortality (%) 24 h” value is 1%. Same read-out and setting: with `CC(C)N(c1ccc(Cl)cc1Oc1ccc(Cl)cc1Cl)S(=O)(=O)C(F)(F)F` [Compound 86] the figure was 66%; with `CC(C)N(c1ccc(Cl)cc1Oc1ccccc1F)S(=O)(=O)C(F)(F)F` [Compound 87], 24%. On to `CC(C)(C)C(=O)OCN(c1ccc(Cl)cc1Oc1ccccc1F)S(=O)(=O)C(F)(F)F` [Compound 88], for which the “Ctenocephalides felis Mortality (%) 24 h” value was 73%.

For `CCCC(=O)OCN(c1ccc(Cl)cc1Oc1ccccc1F)S(=O)(=O)C(F)(F)F` [Compound 89], the “Ctenocephalides felis Mortality (%) 24 h” value amounted to 6%. Consider `O=S(=O)(Nc1cccc(Oc2ccc(Cl)cc2Cl)c1)C(F)(F)F` [Compound m6, N-[3-(2,4-dichlorophenoxy)phenyl]-1,1,1-trifuoromethanesulfonamide], for which the “Ctenocephalides felis Mortality (%) 24 h” value is 34%. Still for that read-out and setting: then `CN(c1cccc(Oc2ccccc2)c1)S(=O)(=O)C(F)(F)F` [m2], with 88%; and `CC(C)(C)C(=O)OCN(c1cccc(Oc2ccccc2)c1)S(=O)(=O)C(F)(F)F` [m5], with 72%; and `O=S(=O)(Nc1ccc(Oc2ccccc2)cc1)C(F)(F)F` [p1], with 84%. On the same count and under the same terms, then `CN(c1ccc(Oc2ccccc2)cc1)S(=O)(=O)C(F)(F)F` [p2], with 64%; and `CCOCN(c1ccc(Oc2ccccc2)cc1)S(=O)(=O)C(F)(F)F` [p3], with 72%. Still for that read-out and setting: with `COCN(c1ccc(Oc2ccccc2)cc1)S(=O)(=O)C(F)(F)F` [p4] the figure was 49%; with `CC(C)(C)C(=O)OCN(c1ccc(Oc2ccccc2)cc1)S(=O)(=O)C(F)(F)F` [p5], 54%. As for `O=S(=O)(Nc1ccc(Oc2ccc(Cl)cc2Cl)cc1C(F)(F)F)C(F)(F)F` [p6], the “Ctenocephalides felis Mortality (%) 24 h” value is on record as 28%. In the case of `O=S(=O)(Nc1ccc(Oc2ccc(Cl)cc2Cl)c(F)c1)C(F)(F)F` [p8], the “Ctenocephalides felis Mortality (%) 24 h” value was found to be 4%. For `O=S(=O)(Nc1ccc(Oc2ccc(Cl)cc2Cl)c(C(F)(F)F)c1)C(F)(F)F` [p9], the “Ctenocephalides felis Mortality (%) 24 h” value stood at 44%.
